{"source": "paper PMC6218115", "about": "“In Vitro Potency and Preclinical Pharmacokinetic Comparison of All-D-Enantiomeric Peptides Developed for the Treatment of Alzheimer’s Disease” (Journal of Alzheimer's Disease, 2018)", "origin": "cited, not measured here", "system": "tg-APPSwDI mice", "settings": "intraperitoneal treatment, 4 weeks; Klein et al.; cited from earlier work", "note": "Non-standard residues stand in square brackets, D forms with d. Residues, ends and D or L forms follow the SMILES beside them."}
{"smiles": "CC[C@@H](C)[C@@H](NC(=O)[C@@H](CCCNC(=N)N)NC(=O)[C@@H](CCCCN)NC(=O)[C@H](N)CCCNC(=N)N)C(=O)N[C@H](CCCNC(=N)N)C(=O)N[C@H](CC(C)C)C(=O)N[C@@H](C(=O)N[C@@H](C(=O)N[C@H](CCCCN)C(=O)N[C@H](CCCCN)C(=O)N[C@H](CCCCN)C(=O)N[C@H](CCCNC(=N)N)C(N)=O)[C@H](C)O)C(C)C", "note": "[ANK6] (H-[dR][dK][dR][dI][dR][dL][dV][dT][dK][dK][dK][dR]-NH2; N-terminus assumed)", "values": [{"measurement": "memory performance of tg-APPSwDI mice", "result": "a non-significant tendency for improving memory performance"}]}
